Data set [1] concerns the target T1, GSK3β (Homo sapiens, UniProt P49841). Put plainly: Z'LYTE kinase assay. It counts as biochemical. Particulars: for Hill slope GSK3β (Z'LYTE): four-parameter non-linear regression.
The target in data set [2] is T1, GSK3β. Put plainly: Promega ADP-Glo kinase assay, GSK3β inhibition. It counts as biochemical. The settings on record: for IC50: IC50 GSK3β (ADP-Glo), 10-point three-fold dilution from 100 μM, n = 2; for Hill slope GSK3β (ADP-Glo): four-parameter non-linear regression; for inhibition at 100 µM: read-out: Percent Inhibition of GSK3β, 100 μM, single point, n = 3.
Data set [3] addresses T2, GSK3α (Homo sapiens, UniProt P49840). Put plainly: Z'LYTE kinase assay. The format is biochemical. The settings on record: for IC50: IC50 GSK3α (Z'LYTE), values of main text and Table S3; for Selectivity GSK3β versus GSK3α: from Z'LYTE IC50 values.
The next data set concerns CYP2D6. The settings on record: in vitro ref 75; cited from earlier work.
The conditions of data set [4]: cohort of diabetic individuals ref 74; cited from earlier work.
Data set [5] deals with T2, GSK3α. Particulars: cited from earlier work.
The subject of another data set is GSKβ. Particulars: cited from earlier work.

T2 sequence (P49840 whole entry): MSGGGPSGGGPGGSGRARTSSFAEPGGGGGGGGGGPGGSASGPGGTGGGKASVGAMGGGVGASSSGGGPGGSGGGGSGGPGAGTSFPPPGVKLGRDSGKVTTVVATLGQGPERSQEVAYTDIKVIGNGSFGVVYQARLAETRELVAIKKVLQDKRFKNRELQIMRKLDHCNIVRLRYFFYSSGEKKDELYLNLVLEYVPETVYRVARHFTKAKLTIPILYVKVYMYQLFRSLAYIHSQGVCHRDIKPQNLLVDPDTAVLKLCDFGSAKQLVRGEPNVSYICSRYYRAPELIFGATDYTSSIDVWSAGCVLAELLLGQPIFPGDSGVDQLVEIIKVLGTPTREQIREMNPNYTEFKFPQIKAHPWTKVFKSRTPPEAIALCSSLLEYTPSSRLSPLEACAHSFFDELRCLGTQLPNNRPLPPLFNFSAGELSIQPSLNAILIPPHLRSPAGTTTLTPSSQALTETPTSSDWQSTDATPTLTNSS
T1 sequence (P49841 whole entry): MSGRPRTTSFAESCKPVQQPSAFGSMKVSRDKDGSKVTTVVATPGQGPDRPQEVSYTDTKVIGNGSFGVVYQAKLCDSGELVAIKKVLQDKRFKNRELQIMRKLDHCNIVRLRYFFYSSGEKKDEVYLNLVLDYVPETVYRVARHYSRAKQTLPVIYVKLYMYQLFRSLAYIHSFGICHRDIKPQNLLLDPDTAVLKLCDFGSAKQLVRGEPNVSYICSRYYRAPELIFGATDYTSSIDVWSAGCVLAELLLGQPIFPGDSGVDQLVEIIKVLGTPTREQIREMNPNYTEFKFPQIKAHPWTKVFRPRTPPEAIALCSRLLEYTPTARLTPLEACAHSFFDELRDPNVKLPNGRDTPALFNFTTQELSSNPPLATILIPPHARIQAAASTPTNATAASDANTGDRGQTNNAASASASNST

For `CC(=O)Nc1ncc([N+](=O)[O-])s1` [Nithiamide], at GSK3β [1], the IC50 was 5 µM and the “Hill slope GSK3β (Z'LYTE)” value amounted to 1.26. Also, at GSK3β [2], the IC50 came to 8.5 µM, the “Hill slope GSK3β (ADP-Glo)” value is reported as −0.80 and the inhibition at 100 µM was over 70%. Besides, on GSK3α [3], the IC50 came out at 4.4 µM and the “Selectivity GSK3β versus GSK3α” value was “non-selective”.

Take `c1ccc2[nH]c(-c3cscn3)nc2c1` [Thiabendazole]: at GSK3β [1], the IC50 is 54.8 µM and the “Hill slope GSK3β (Z'LYTE)” value was found to be 1.10. For the same molecule, on GSK3β [2], half-maximal inhibition (IC50) was put at 12.1 µM, the “Hill slope GSK3β (ADP-Glo)” value is −0.68 and the inhibition at 100 µM was over 70%. Also, at GSK3α [3], it took 60.8 µM to reach half-maximal inhibition (IC50) and the “Selectivity GSK3β versus GSK3α” value was “non-selective”.

For `COC(=O)C1=C(C)NC(C)=C(C(=O)OC)C1c1ccccc1[N+](=O)[O-]` [Nifedipine], the inhibition at 100 µM on GSK3β [2] is 69%.

As to `CN(C)C[C@@H]1CCn2cc(c3ccccc32)C2=C(C(=O)NC2=O)c2cn(c3ccccc23)CCO1` [Ruboxistaurin], in the data set on CYP2D6, the “Interaction with CYP2D6” value is on record as “potent interactions”. On GSK3β [1], the “Hill slope GSK3β (Z'LYTE)” value was 0.98. On GSK3β [2], the “Hill slope GSK3β (ADP-Glo)” value is reported as −0.68 and the inhibition at 100 µM is 96%. Moreover, in data set [4], the Clinical safety entry is given as “safe up to 32 mg/day for 4 years”. Further, the “Activity for GSK3α in published kinase screening” value on GSK3α [5] is given as “micromolar activity”. Also, in the data set on GSKβ, the “Activity for GSKβ in published kinase screening” value was “micromolar activity”.
